Laboratory results: patent US8901118B2, “Compounds and methods for kinase modulation, and indications therefor” (Plexxikon Inc., priority 2010, dated 2014)

Columns and labels:
[1] = biological target: CYP2C19 (Homo sapiens, UniProt P33261); assay: CYP2C19 inhibition (fluorescent substrate CEC); assay type: in vitro ADME; conditions: read-out: Cyp IC50 2C19
Outline: (§1)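 IC50 derives from metabolite fluorescence against compound concentration, read at excitation 409 nm and emission 460 nm for CYP1A2/2C19 or 530 nm for CYP2C9/2D6. Incubations ran at 37° C for 15 min (1A2), 45 min (2C9) or 30 min (2C19, 2D6), after serial dilution into NADPH cofactor mix and 10 min preincubation.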

[2] = biological target: CYP3A4(BFC) (Homo sapiens, UniProt P08684); assay: CYP3A4(BFC) inhibition; assay type: in vitro ADME; conditions: CYP3A4, substrate BFC; read-out: Cyp IC50 3A4(BFC)
Chain of CYP3A4(BFC) (P08684 whole entry): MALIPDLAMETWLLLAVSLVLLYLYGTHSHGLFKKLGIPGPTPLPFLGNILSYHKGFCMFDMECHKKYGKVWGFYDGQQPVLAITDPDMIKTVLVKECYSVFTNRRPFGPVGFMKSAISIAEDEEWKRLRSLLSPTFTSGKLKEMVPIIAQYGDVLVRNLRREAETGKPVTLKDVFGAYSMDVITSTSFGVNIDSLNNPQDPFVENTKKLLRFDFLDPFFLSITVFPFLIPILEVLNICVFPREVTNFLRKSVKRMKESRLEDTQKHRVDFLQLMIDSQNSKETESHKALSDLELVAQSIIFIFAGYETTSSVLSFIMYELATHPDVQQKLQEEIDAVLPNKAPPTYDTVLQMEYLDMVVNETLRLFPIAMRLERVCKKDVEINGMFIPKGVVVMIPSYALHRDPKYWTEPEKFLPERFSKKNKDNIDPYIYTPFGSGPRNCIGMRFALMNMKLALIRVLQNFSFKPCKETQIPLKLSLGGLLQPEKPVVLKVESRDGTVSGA
Outline: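 This fluorescence assay tracks how test compounds reduce CYP3A4 turnover of BFC, with enzyme and substrate from BD Biosciences. A 10-point 1:1 dilution series in cofactor mix (1.3% NADPH Regeneration Solution A, 1.04% Solution B, 5% acetonitrile, 0.05% DMSO) was dispensed at 10 μL into 384 well plates, preincubated 10 minutes at 37° C, then incubated 30 min and read on a Tecan Safire 2.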

[3] = biological target: T1, BCR-NTRK1 BaF3 cells (Homo sapiens, UniProt P04629); assay: BaF3 BCR-NTRK1 cell proliferation assay (ATPlite); assay type: cell-based; conditions: read-out: Inhibition of Cell Proliferation IC50, BCR/BaF3 TrkA
T1 construct: fused on or other part: P11274 (Breakpoint cluster region protein)
T1 sequence (P04629 510-781): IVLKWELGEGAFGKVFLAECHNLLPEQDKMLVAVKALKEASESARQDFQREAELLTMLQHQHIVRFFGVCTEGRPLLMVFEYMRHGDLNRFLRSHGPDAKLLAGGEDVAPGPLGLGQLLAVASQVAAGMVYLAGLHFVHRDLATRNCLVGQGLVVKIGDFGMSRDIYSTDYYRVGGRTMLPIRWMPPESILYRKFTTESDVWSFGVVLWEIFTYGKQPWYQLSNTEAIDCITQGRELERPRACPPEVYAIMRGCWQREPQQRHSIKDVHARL
Outline: (§2)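 Cells are plated overnight: BaF3 at 10,000/well in G418 medium without WEHI/IL-3, MV-4-11 at 25,000/well in IMDM with 10% FBS. An 8-point 1:3 compound titration (10 μM top) is then added, and plates are incubated 3 days at 37 °C before ATPlite readout and IC50 determination.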

[4] = biological target: T2, BCR-NTRK3 BaF3 cells (Homo sapiens, UniProt Q16288); assay: BaF3 BCR-NTRK3 cell proliferation assay (ATPlite); assay type: cell-based; conditions: read-out: Inhibition of Cell Proliferation IC50, BCR/BaF3 TrkC
T2 construct: fused on or other part: P11274 (Breakpoint cluster region protein)
T2 sequence (Q16288 whole entry, the tested form may be a part): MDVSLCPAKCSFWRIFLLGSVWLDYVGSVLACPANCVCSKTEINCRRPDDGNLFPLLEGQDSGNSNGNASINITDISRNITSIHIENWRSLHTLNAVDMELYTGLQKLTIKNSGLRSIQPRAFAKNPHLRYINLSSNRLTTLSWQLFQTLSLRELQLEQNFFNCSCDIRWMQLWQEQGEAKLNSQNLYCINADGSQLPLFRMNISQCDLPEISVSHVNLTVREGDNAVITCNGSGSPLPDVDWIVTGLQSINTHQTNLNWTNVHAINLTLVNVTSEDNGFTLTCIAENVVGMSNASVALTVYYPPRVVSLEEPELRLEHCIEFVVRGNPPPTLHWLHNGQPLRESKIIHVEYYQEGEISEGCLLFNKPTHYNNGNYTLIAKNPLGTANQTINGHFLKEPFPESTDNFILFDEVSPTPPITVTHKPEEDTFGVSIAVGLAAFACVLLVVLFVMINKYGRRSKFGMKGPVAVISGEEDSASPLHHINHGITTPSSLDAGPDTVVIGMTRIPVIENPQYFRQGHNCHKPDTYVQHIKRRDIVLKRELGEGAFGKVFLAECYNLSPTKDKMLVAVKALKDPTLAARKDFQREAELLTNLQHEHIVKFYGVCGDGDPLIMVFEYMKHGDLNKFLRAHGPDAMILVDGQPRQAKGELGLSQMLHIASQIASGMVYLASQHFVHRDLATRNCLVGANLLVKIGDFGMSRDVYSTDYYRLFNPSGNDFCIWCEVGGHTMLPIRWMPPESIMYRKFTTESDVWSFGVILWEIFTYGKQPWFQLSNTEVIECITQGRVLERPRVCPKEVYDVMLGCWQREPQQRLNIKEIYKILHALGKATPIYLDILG
Outline: as §2

[5] = biological target: T3, BCR-NTRK2 BaF3 cells (Homo sapiens, UniProt Q16620); assay: BaF3 BCR-NTRK2 cell proliferation assay (ATPlite); assay type: cell-based; conditions: read-out: Inhibition of Cell Proliferation IC50, BCR/BaF3 TrkB
T3 construct: fused on or other part: P11274 (Breakpoint cluster region protein)
T3 sequence (Q16620 538-807): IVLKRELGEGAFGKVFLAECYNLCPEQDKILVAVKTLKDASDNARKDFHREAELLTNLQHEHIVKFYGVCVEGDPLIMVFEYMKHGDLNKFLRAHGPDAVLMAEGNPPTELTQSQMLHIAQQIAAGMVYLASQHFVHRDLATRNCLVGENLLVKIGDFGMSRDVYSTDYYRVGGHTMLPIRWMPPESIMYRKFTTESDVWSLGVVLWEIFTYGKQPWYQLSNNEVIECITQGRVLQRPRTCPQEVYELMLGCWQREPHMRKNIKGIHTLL
Outline: as §2

[6] = biological target: CYP2C9 (Homo sapiens, UniProt P11712); assay: CYP2C9 inhibition (fluorescent substrate MFC); assay type: in vitro ADME; conditions: read-out: Cyp IC50 2C9
Chain of CYP2C9 (P11712 whole entry): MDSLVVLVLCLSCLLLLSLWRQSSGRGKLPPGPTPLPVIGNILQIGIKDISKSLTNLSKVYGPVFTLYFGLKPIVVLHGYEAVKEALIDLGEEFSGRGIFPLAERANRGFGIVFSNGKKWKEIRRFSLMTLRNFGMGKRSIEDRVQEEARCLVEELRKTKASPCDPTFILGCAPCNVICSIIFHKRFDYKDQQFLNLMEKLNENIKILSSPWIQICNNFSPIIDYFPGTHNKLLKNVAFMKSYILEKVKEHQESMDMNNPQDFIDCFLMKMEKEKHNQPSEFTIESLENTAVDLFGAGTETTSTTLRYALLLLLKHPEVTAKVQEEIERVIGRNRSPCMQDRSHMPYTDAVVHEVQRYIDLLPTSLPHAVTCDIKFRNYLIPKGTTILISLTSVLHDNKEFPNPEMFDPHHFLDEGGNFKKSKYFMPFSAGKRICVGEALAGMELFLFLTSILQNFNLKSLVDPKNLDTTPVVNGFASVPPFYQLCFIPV
Outline: as §1

Chain of CYP2C19 (P33261 whole entry): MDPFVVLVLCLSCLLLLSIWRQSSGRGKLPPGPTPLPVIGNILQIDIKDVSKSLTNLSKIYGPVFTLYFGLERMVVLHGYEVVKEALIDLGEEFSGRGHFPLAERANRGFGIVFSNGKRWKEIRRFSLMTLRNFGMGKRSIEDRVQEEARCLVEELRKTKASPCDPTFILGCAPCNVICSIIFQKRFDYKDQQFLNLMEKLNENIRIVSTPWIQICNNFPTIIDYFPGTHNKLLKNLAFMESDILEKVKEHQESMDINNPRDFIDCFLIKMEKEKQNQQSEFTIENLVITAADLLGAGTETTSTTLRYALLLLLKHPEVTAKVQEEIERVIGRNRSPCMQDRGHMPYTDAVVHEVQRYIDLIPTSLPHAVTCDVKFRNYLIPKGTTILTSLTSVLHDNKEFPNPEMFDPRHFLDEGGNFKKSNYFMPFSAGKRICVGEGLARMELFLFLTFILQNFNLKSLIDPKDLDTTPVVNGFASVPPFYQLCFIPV

**Q.** Which results are given for Fc1cc(Cc2c[nH]c3ncnc(NC4CC4)c23)cnc1NC1CCC(F)(F)CC1 [Compound P-4127, N-cyclopropyl-5-[[6-[(4,4-difluorocyclohexyl)amino]-5-fluoro-3-pyridyl]methyl]-7H-pyrrolo[2,3-d]pyrimidin-4-amine]?
**A.** IC50 [1]: 5 to 10 µM; IC50 [2]: < 5 µM; IC50 [3]: < 1 µM; IC50 [4]: < 0.1 µM; IC50 [5]: < 0.1 µM; IC50 [6]: > 10 µM
